Assay results: ChEMBL document CHEMBL4229379, “Synthesis and structure-activity relationship of novel bisindole amidines active against MDR Gram-positive and Gram-negative bacteria” (Eur J Med Chem, 2018)
Converted amounts (≈) assume the structure as drawn.

Legend:
Serratia marcescens = assay: Antibacterial activity against Serratia marcescens ATCC 21074 after 18 hrs by CLSI broth microdilution method; assay type: functional; conditions: ATCC 21074, 18 h
[1] = tested on: Staphylococcus epidermidis; assay: Antibacterial activity against methicillin-sensitive Staphylococcus epidermidis 12-6 after 18 hrs by CLSI broth microdilution method; assay type: functional; conditions: 12-6, 18 h
Staphylococcus aureus [2] = assay: Antibacterial activity against methicillin-sensitive Staphylococcus aureus ATCC 29213 after 18 hrs by CLSI broth microdilution method; assay type: functional; conditions: ATCC 29213, 18 h
Pseudomonas aeruginosa [3] = assay: Antibacterial activity against Pseudomonas aeruginosa ATCC 27853 after 18 hrs by CLSI broth microdilution method; assay type: functional; conditions: ATCC 27853, 18 h
[4] = Cytotoxicity against HEK293T cells assessed as reduction in cell viability after 48 hrs by MTS assay; assay type: cell-based, HEK-293T; conditions: human
Pseudomonas aeruginosa [5] = assay: Antibacterial activity against Pseudomonas aeruginosa 12-16 after 18 hrs by CLSI broth microdilution method; assay type: functional; conditions: 12-16, 18 h
Escherichia coli [6] = assay: Antibacterial activity against extended-spectrum beta-lactamase deficient Escherichia coli 1515 after 18 hrs by CLSI broth microdilution method; assay type: functional; conditions: Escherichia coli, 1515, 18 h
Escherichia coli [7] = assay: Antibacterial activity against extended-spectrum beta-lactamase harboring Escherichia coli 12-15 after 18 hrs by CLSI broth microdilution method; assay type: functional; conditions: 12-15, 18 h
[8] = tested on: Staphylococcus epidermidis; assay: Antibacterial activity against methicillin-sensitive Staphylococcus epidermidis ATCC 12228 after 18 hrs by CLSI broth microdilution method; assay type: functional; conditions: ATCC 12228, 18 h
Escherichia coli [9] = assay: Antibacterial activity against extended-spectrum beta-lactamase deficient Escherichia coli ATCC 25922 after 18 hrs by CLSI broth microdilution method; assay type: functional; conditions: ATCC 25922, 18 h
Pseudomonas aeruginosa [10] = assay: Antibacterial activity against Pseudomonas aeruginosa PAO1 after 18 hrs by CLSI broth microdilution method; assay type: functional; conditions: PAO1, 18 h
Klebsiella pneumoniae [11] = assay: Antibacterial activity against extended-spectrum beta-lactamase harboring Klebsiella pneumoniae ATCC 700603 after 18 hrs by CLSI broth microdilution method; assay type: functional; conditions: Klebsiella pneumoniae, 700603, 18 h
Enterococcus faecalis [12] = assay: Antibacterial activity against vancomycin-sensitive Enterococcus faecalis ATCC 29212 after 18 hrs by CLSI broth microdilution method; assay type: functional; conditions: ATCC 29212, 18 h
Staphylococcus aureus [13] = assay: Antibacterial activity against methicillin-resistant Staphylococcus aureus ATCC 33591 after 18 hrs by CLSI broth microdilution method; assay type: functional; conditions: ATCC 33591, 18 h
Klebsiella aerogenes = assay: Antibacterial activity against Enterobacter aerogenes ATCC 13048 after 18 hrs by CLSI broth microdilution method; assay type: functional; conditions: ATCC 13048, 18 h
Klebsiella pneumoniae [14] = assay: Antibacterial activity against new delhi metallo-beta-lactamase-1 harboring Klebsiella pneumoniae ATCC BAA-2146 after 18 hrs by CLSI broth microdilution method; assay type: functional; conditions: ATCC BAA-2146, 18 h
Enterobacter cloacae = assay: Antibacterial activity against Enterobacter cloacae ATCC 43560 after 18 hrs by CLSI broth microdilution method; assay type: functional; conditions: ATCC 43560, 18 h
Proteus mirabilis = assay: Antibacterial activity against Proteus mirabilis 12-6 after 18 hrs by CLSI broth microdilution method; assay type: functional; conditions: 12-6, 18 h
Staphylococcus aureus [15] = assay: Antibacterial activity against methicillin-sensitive Staphylococcus aureus 12-28 after 18 hrs by CLSI broth microdilution method; assay type: functional; conditions: 12-28, 18 h
Enterococcus faecium [16] = assay: Antibacterial activity against vancomycin-resistant Enterococcus faecium ATCC 700221 after 18 hrs by CLSI broth microdilution method; assay type: functional; conditions: ATCC 700221, 18 h
Enterococcus faecalis [17] = assay: Antibacterial activity against vancomycin-sensitive Enterococcus faecalis 12-5 after 18 hrs by CLSI broth microdilution method; assay type: functional; conditions: 12-5, 18 h
Klebsiella pneumoniae [18] = assay: Antibacterial activity against extended-spectrum beta-lactamase deficient Klebsiella pneumoniae 7 after 18 hrs by CLSI broth microdilution method; assay type: functional; conditions: Klebsiella pneumoniae, 7, 18 h
Enterococcus faecalis [19] = assay: Antibacterial activity against vancomycin-resistant Enterococcus faecalis ATCC 51299 after 18 hrs by CLSI broth microdilution method; assay type: functional; conditions: ATCC 51299, 18 h
Staphylococcus aureus [20] = assay: Antibacterial activity against methicillin-resistant Staphylococcus aureus 12-33 after 18 hrs by CLSI broth microdilution method; assay type: functional; conditions: 12-33, 18 h
Proteus vulgaris = assay: Antibacterial activity against Proteus vulgaris ATCC 29905 after 18 hrs by CLSI broth microdilution method; assay type: functional; conditions: ATCC 29905, 18 h
Citrobacter freundii = assay: Antibacterial activity against Citrobacter freundii ATCC 43864 after 18 hrs by CLSI broth microdilution method; assay type: functional; conditions: ATCC 43864, 18 h
Klebsiella pneumoniae [21] = assay: Antibacterial activity against extended-spectrum beta-lactamase deficient Klebsiella pneumoniae 12-4 after 18 hrs by CLSI broth microdilution method; assay type: functional; conditions: 12-4, 18 h
Klebsiella pneumoniae [22] = assay: Antibacterial activity against extended-spectrum beta-lactamase harboring Klebsiella pneumoniae 12-8 after 18 hrs by CLSI broth microdilution method; assay type: functional; conditions: 12-8, 18 h
Providencia rettgeri = assay: Antibacterial activity against Providencia rettgeri ATCC 31052 after 18 hrs by CLSI broth microdilution method; assay type: functional; conditions: ATCC 31052, 18 h
[23] = tested on: Acinetobacter calcoaceticus; assay: Antibacterial activity against Acinetobacter calcoaceticus ATCC 19606 after 18 hrs by CLSI broth microdilution method; assay type: functional; conditions: ATCC 19606, 18 h
Escherichia coli [24] = assay: Antibacterial activity against extended-spectrum beta-lactamase deficient Escherichia coli 12-14 after 18 hrs by CLSI broth microdilution method; assay type: functional; conditions: 12-14, 18 h
[25] = tested on: Stenotrophomonas maltophilia; assay: Antibacterial activity against Stenotrophomonas maltophilia ATCC 13636 after 18 hrs by CLSI broth microdilution method; assay type: functional; conditions: ATCC 13636, 18 h
Staphylococcus aureus [26] = assay: Antibacterial activity against methicillin-sensitive Staphylococcus aureus 15 after 18 hrs by CLSI broth microdilution method; assay type: functional; conditions: Staphylococcus aureus, 15, 18 h
Enterococcus faecium [27] = assay: Antibacterial activity against vancomycin-sensitive Enterococcus faecium 12-3 after 18 hrs by CLSI broth microdilution method; assay type: functional; conditions: 12-3, 18 h
[28] = tested on: Staphylococcus epidermidis; assay: Antibacterial activity against methicillin-resistant Staphylococcus epidermidis 12-8 after 18 hrs by CLSI broth microdilution method; assay type: functional; conditions: 12-8, 18 h
Enterococcus faecium [29] = assay: Antibacterial activity against vancomycin-resistant Enterococcus faecium 12-1 after 18 hrs by CLSI broth microdilution method; assay type: functional; conditions: 12-1, 18 h
Enterococcus faecalis [30] = assay: Antibacterial activity against vancomycin-resistant Enterococcus faecalis 09-9 after 18 hrs by CLSI broth microdilution method; assay type: functional; conditions: 09-9, 18 h

COCCNC(=N)c1ccc2cc(-c3ccc(-c4cc5ccc(C(=N)NCCOC)cc5[nH]4)cc3)[nH]c2c1
MIC (Serratia marcescens): 16 µg/mL (≈ 31.5 µM) | MIC [1]: 0.125 µg/mL (≈ 0.246 µM) | MIC (Staphylococcus aureus [2]): 0.25 µg/mL (≈ 0.492 µM) | MIC (Pseudomonas aeruginosa [3]): 16 µg/mL (≈ 31.5 µM) | CC50 at 48 h [4]: 3.95 µg/mL (≈ 7.77 µM) | MIC (Pseudomonas aeruginosa [5]): 32 µg/mL (≈ 62.9 µM) | MIC (Escherichia coli [6]): 8 µg/mL (≈ 15.7 µM) | MIC (Escherichia coli [7]): 4 µg/mL (≈ 7.86 µM) | MIC [8]: 0.125 µg/mL (≈ 0.246 µM) | MIC (Escherichia coli [9]): 2 µg/mL (≈ 3.93 µM) | MIC (Pseudomonas aeruginosa [10]): 32 µg/mL (≈ 62.9 µM) | MIC (Klebsiella pneumoniae [11]): 16 µg/mL (≈ 31.5 µM) | MIC (Enterococcus faecalis [12]): 0.5 µg/mL (≈ 0.983 µM) | MIC (Staphylococcus aureus [13]): 0.25 µg/mL (≈ 0.492 µM) | MIC (Klebsiella aerogenes): 8 µg/mL (≈ 15.7 µM) | MIC (Klebsiella pneumoniae [14]): 8 µg/mL (≈ 15.7 µM) | MIC (Enterobacter cloacae): 2 µg/mL (≈ 3.93 µM) | MIC (Proteus mirabilis): 32 µg/mL (≈ 62.9 µM) | MIC (Staphylococcus aureus [15]): 0.25 µg/mL (≈ 0.492 µM) | MIC (Enterococcus faecium [16]): 0.5 µg/mL (≈ 0.983 µM) | MIC (Enterococcus faecalis [17]): 2 µg/mL (≈ 3.93 µM) | MIC (Klebsiella pneumoniae [18]): 8 µg/mL (≈ 15.7 µM) | MIC (Enterococcus faecalis [19]): 0.5 µg/mL (≈ 0.983 µM) | MIC (Staphylococcus aureus [20]): 0.25 µg/mL (≈ 0.492 µM) | MIC (Proteus vulgaris): 16 µg/mL (≈ 31.5 µM) | MIC (Citrobacter freundii): 2 µg/mL (≈ 3.93 µM) | MIC (Klebsiella pneumoniae [21]): 8 µg/mL (≈ 15.7 µM) | MIC (Klebsiella pneumoniae [22]): 8 µg/mL (≈ 15.7 µM) | MIC (Providencia rettgeri): 8 µg/mL (≈ 15.7 µM) | MIC [23]: 32 µg/mL (≈ 62.9 µM) | MIC (Escherichia coli [24]): 2 µg/mL (≈ 3.93 µM) | MIC [25]: 16 µg/mL (≈ 31.5 µM) | MIC (Staphylococcus aureus [26]): 0.25 µg/mL (≈ 0.492 µM) | MIC (Enterococcus faecium [27]): 0.5 µg/mL (≈ 0.983 µM) | MIC [28]: 0.125 µg/mL (≈ 0.246 µM) | MIC (Enterococcus faecium [29]): 0.5 µg/mL (≈ 0.983 µM) | MIC (Enterococcus faecalis [30]): 1 µg/mL (≈ 1.97 µM)

CCN(C)C(=N)c1ccc2cc(-c3ccc(-c4cc5ccc(C(=N)N(C)CC)cc5[nH]4)cc3)[nH]c2c1
MIC (Serratia marcescens): 16 µg/mL (≈ 33.6 µM) | MIC [1]: 0.25 µg/mL (≈ 0.525 µM) | MIC (Staphylococcus aureus [2]): 0.5 µg/mL (≈ 1.05 µM) | MIC (Pseudomonas aeruginosa [3]): 8 µg/mL (≈ 16.8 µM) | CC50 at 48 h [4]: 17 µg/mL (≈ 35.8 µM) | MIC (Pseudomonas aeruginosa [5]): 128 µg/mL (≈ 269 µM) | MIC (Escherichia coli [6]): 2 µg/mL (≈ 4.2 µM) | MIC (Escherichia coli [7]): 2 µg/mL (≈ 4.2 µM) | MIC [8]: 0.25 µg/mL (≈ 0.525 µM) | MIC (Escherichia coli [9]): 1 µg/mL (≈ 2.1 µM) | MIC (Pseudomonas aeruginosa [10]): 128 µg/mL (≈ 269 µM) | MIC (Klebsiella pneumoniae [11]): 8 µg/mL (≈ 16.8 µM) | MIC (Enterococcus faecalis [12]): 1 µg/mL (≈ 2.1 µM) | MIC (Staphylococcus aureus [13]): 0.5 µg/mL (≈ 1.05 µM) | MIC (Klebsiella aerogenes): 2 µg/mL (≈ 4.2 µM) | MIC (Klebsiella pneumoniae [14]): 4 µg/mL (≈ 8.39 µM) | MIC (Enterobacter cloacae): 2 µg/mL (≈ 4.2 µM) | MIC (Proteus mirabilis): 8 µg/mL (≈ 16.8 µM) | MIC (Staphylococcus aureus [15]): 0.5 µg/mL (≈ 1.05 µM) | MIC (Enterococcus faecium [16]): 1 µg/mL (≈ 2.1 µM) | MIC (Enterococcus faecalis [17]): 2 µg/mL (≈ 4.2 µM) | MIC (Klebsiella pneumoniae [18]): 4 µg/mL (≈ 8.39 µM) | MIC (Enterococcus faecalis [19]): 2 µg/mL (≈ 4.2 µM) | MIC (Staphylococcus aureus [20]): 1 µg/mL (≈ 2.1 µM) | MIC (Proteus vulgaris): 4 µg/mL (≈ 8.39 µM) | MIC (Citrobacter freundii): 2 µg/mL (≈ 4.2 µM) | MIC (Klebsiella pneumoniae [21]): 4 µg/mL (≈ 8.39 µM) | MIC (Klebsiella pneumoniae [22]): 4 µg/mL (≈ 8.39 µM) | MIC (Providencia rettgeri): 4 µg/mL (≈ 8.39 µM) | MIC [23]: 4 µg/mL (≈ 8.39 µM) | MIC (Escherichia coli [24]): 2 µg/mL (≈ 4.2 µM) | MIC [25]: 8 µg/mL (≈ 16.8 µM) | MIC (Staphylococcus aureus [26]): 0.5 µg/mL (≈ 1.05 µM) | MIC (Enterococcus faecium [27]): 1 µg/mL (≈ 2.1 µM) | MIC [28]: 0.5 µg/mL (≈ 1.05 µM) | MIC (Enterococcus faecium [29]): 0.5 µg/mL (≈ 1.05 µM) | MIC (Enterococcus faecalis [30]): 2 µg/mL (≈ 4.2 µM)
